Reference: patent publication US5294724A, “4-hydroxytetrahydropyran-2-ones and the corresponding dihydroxycarboxylic acid derivatives, salts and esters and a process for their preparation” (priority 1989, dated 1994)

Legend:
[1] = tested on: microsomal lipid peroxidation; experiment: Inhibition of microsomal lipid peroxidation (in vitro); format: biochemical; settings: for IC50: microsomes, read-out: IC50 (50% inhibition of lipid peroxidation)
Description: 5) Inhibition of microsomal lipid peroxidation (in vitro)
The inhibition of lipid peroxidation was measured under the experimental conditions described by H. Wafers and H. Sies, Eur. J. Biochem. 174, 353-357 (1988). The microsomes were obtained according to the literature cited therein. IC50 denotes the concentration of the test compound in moles per liter which causes a 50% inhibition of lipid peroxidation.

HMG-CoA reductase = molecular target: T1, HMG-CoA reductase (Rattus norvegicus, UniProt P51639); experiment: Inhibition of HMG-CoA reductase activity in solubilized enzyme preparations from rat liver microsomes; format: biochemical; settings: sodium salts of the dihydroxycarboxylic acids; mean of 3 parallel samples; read-out: IC50 (molar concentration necessary for a 50% inhibition)
T1 construct: solubilized enzyme preparations from liver microsomes of rats; from tissue; host or cells: rat liver microsomes (cholestyramine-induced rats), solubilized
T1 sequence (P51639 1-887): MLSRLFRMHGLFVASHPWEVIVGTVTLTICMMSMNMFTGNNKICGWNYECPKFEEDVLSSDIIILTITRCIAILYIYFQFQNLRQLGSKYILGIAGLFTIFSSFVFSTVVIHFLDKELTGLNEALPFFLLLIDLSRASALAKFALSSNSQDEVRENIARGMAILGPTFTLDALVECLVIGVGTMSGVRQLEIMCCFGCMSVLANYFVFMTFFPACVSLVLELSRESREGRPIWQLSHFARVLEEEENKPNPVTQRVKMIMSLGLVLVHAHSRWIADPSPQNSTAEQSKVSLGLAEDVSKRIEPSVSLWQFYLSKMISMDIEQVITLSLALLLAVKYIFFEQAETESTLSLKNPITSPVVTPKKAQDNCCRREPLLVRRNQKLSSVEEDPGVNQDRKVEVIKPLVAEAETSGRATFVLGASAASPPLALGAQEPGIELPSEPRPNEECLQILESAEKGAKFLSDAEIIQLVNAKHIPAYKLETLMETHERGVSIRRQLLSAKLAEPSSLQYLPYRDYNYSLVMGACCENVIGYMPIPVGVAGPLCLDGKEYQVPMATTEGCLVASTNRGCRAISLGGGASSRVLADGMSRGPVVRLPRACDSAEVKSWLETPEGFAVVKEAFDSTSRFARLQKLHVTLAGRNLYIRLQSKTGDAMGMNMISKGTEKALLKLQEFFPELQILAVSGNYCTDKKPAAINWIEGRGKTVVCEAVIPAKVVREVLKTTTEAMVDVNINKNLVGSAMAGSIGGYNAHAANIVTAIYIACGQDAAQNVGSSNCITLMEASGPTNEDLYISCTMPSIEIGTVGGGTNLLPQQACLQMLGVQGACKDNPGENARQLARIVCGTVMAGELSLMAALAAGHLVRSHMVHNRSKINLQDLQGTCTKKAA
Description: 1) Inhibition of HKG-CoA reductase activity in solubilized enzyme preparations from rat liver microsomes
HMG-CoA reductase activity was measured on solubilized enzyme preparations from liver microsomes of rats which had been induced by conversion into the day/night rhythm using cholestyramine (®Cuemid). (S,R)^14 C-HMG-CoA was used as a substrate, and the concentration of NADPH was maintained during the incubation by a regenerating system. The separation of ^14 C-mevalonate from substrate and other products (for example ^14 C-HMG) was carried out by column elution, the elution profile of each individual sample being determined. The regular addition of ^3 H-mevalonate was avoided as the determination gives the data relative to the inhibitory action. The enzyme-free control, the enzyme-containing normal mixture (=100%) and those containing preparation additives were in each case treated together in one series of experiments. The sodium salts of the dihydroxycarboxylic acids of the formula II were always employed as the preparation in this test. Each individual value was formed as the mean value of 3 parallel samples. The significance of the mean value differences between preparation-free and preparation-containing samples was evaluated by the t-test.

HEP G2 cells = experiment: Inhibition of cholesterol biosynthesis in cell cultures (HEP G2 cells), incorporation of 14C-sodium acetate in cholesterol; format: cell-based; settings: for IC50: Homo sapiens, HepG2, sodium salts, test compounds corrected by deviation of mevinolin sodium from its mean value, read-out: IC50 (concentration necessary for a 50% inhibition); for Relative potency in %: mevinolin sodium = 100, from IC50
Description: 2) Inhibition of cholesterol biosynthesis in cell cultures (EEP G2 cells)
Determination of the inhibition of the incorporation of ^14 C-sodium acetate in cholesterol
Monolayers of HEP G2 cells in lipoprotein-free medium were preincubated with various concentrations of the sodium salts of the dihydroxycarboxylic acids of the formula II for 1 hour. After adding ^14 C-labeled sodium acetate, the incubation was continued for 3 hours. Tritium-labeled cholesterol was added as an internal standard and an aliquot of the cells was subjected to alkaline hydrolysis. The lipids were extracted using chloroform/methanol 2: 1. After adding carrier cholesterol, the lipid mixture was preparatively separated on TLC plates using chloroform/acetone 9: 1. The cholesterol zone was made visible by staining with iodine vapor, additionally detected using a TLC radio scanner and then scraped off. The amount of ^14 C-cholesterol formed was determined scintigraphically and related to mg of cell protein. The same procedure was carried out with cells from the Bame culture without preincubation with a test compound (so-called "solvent control"). The potency of the test compounds was determined by comparison of the biosynthesized ^14 C-cholesterol in test runs and in "solvent control".

serum lipoproteins = experiment: Action on serum lipoproteins and other metabolic parameters of male rats in the subchronic test; format: in vivo; settings: rat; for Body weight, % changes in the mean value relative to starting / Food consumption, % changes in the mean value relative to control / Glycerol VLDL, % change compared to control / Liver weight, % changes in the mean value relative to control / Protein LDL, % change compared to control / Protein VLDL, % change compared to control / Total cholesterol HDL, % change compared to control / Total cholesterol LDL, % change compared to control / Total cholesterol VLDL, % change compared to control: 7 administrations; for Cholesterol HDL/LDL: control standardization to 1.00
Description: 3) Action on serum lipoproteins and other metabolic parameters of male rats in the subchronic test
Groups of male rats of the strain HOE: WISKf (SPF 71) having a starting weight of above 180 g received the test preparations daily in the morning (sodium salts of the dihydroxycarboxylic acids of the formula II) in polyethylene glycol 400 by stomach tube; the respective control group received only the vehicle. The last (7th) administration was carried out 24 hours before taking blood and sacrificing. There was free access to food and water during the experiment. 24 hours before taking blood, which wall carried out retroorbitally under slight ether anesthesia before and after the treatment period (i.e. on the 1st and 8th day), the food was withdrawn. Total cholesterol was determined in the serum of each individual animal [CHODPAP high performance method of Boehringer Mannheim], and, as a measure of the triglycerides, total glycerol was also determined analytically from the serum pool of all the animals of one group [GPO-PAP high performance method, Boehringer Mannheim].
Immediately after taking blood, the animals were sacrificed by dislocation of the spine, and the relative liver weight, the change in body weight and the food consumption were determined.
For the analysis of the serum lipoproteins, the serum of all the rats of one group was pooled. The serum lipoproteins were separated using the preparative ultracentrifuge.
The following conditions were used for the separation of the fractions VLDL, LDL and HDL:
The determination of the protein was carried out by the method of Lowry et al. [LOWRY O. H., ROSEBOROUGH, N.J., PARR, A. L. and RANDELL, R. J.: J. Biol. Chem. 193, 265 (1951)].

[2] = 100 mg/kg daily by stomach tube

With O=C(O)C[C@H](O)C[C@H](O)COc1c(-c2ccc(F)cc2)cc(Sc2ccc(F)cc2)cc1C1CC1 [Example 2] the “Inhibition at 10^-5 mol/l” value [1] was under 10%, the IC50 (HMG-CoA reductase) was 2 nM and the IC50 (HEP G2 cells) was 2.2 nM. The “Relative potency in %” value (HEP G2 cells) was 2273%.
For Cc1cc(-c2cc(Sc3ccc(F)cc3)cc(C(C)C)c2OC[C@@H](O)C[C@@H](O)CC(=O)O)ccc1F [Example 3], the IC50 (HMG-CoA reductase) was 4 nM, the IC50 (HEP G2 cells) was 3.8 nM and the “Relative potency in %” value (HEP G2 cells) was 1316%.
With CC(C)c1cc(Sc2ccccc2)cc(-c2ccc(F)cc2)c1OC[C@@H](O)C[C@@H](O)CC(=O)O [Example 4] the IC50 (HMG-CoA reductase) was 8 nM, the IC50 (HEP G2 cells) was 8 nM and the “Relative potency in %” value (HEP G2 cells) was 625%.
For CC(C)Sc1cc(-c2ccc(F)cc2)c(OC[C@@H](O)C[C@@H](O)CC(=O)O)c(C(C)C)c1 [Example 5, Sodium 3(R),S(S)-dihydroxy-6-[(2-p-fluorophenyl-4-isopropylthio-6-isopropyl)phenoxy]hexanoate], the “Inhibition at 10^-5 mol/l” value [1] was 0%, the IC50 (HMG-CoA reductase) was 8 nM and the IC50 (HEP G2 cells) was 9.2 nM. The “Relative potency in %” value (HEP G2 cells) was 543%.
CC(C)c1cc(SC(C)(C)Sc2cc(-c3ccc(F)cc3)c(OC[C@@H](O)C[C@@H](O)CC(=O)O)c(C(C)C)c2)cc(-c2ccc(F)cc2)c1O [Example 6, Sodium 3(R),5(S)-dihydroxy-6-(2-isopropyl-4-[(3-isopropyl-4-sodio-oxy-5-p-fluorophenyl-l-phenylthio)-2-propyl-2-thio]-6-p-fluorophenylphenoxy)hexanoate] was tested, and the “Body weight, % changes in the mean value relative to starting” value (serum lipoproteins; 30 mg/kg daily by stomach tube) was “+5%”, the “Food consumption, % changes in the mean value relative to control” value (serum lipoproteins; 30 mg/kg daily by stomach tube) was -1% and the “Glycerol VLDL, % change compared to control” value (shortened to “Glycerol VLDL, % change”) (serum lipoproteins; 30 mg/kg daily by stomach tube) was “+8%”. The “Liver weight, % changes in the mean value relative to control” value (serum lipoproteins; 30 mg/kg daily by stomach tube) was “+3%”, the “Protein LDL, % change compared to control” value (“Protein LDL, % change” for short) (serum lipoproteins; 30 mg/kg daily by stomach tube) was -24% and the “Protein VLDL, % change compared to control” value (from here on “Protein VLDL, % change”) (serum lipoproteins; 30 mg/kg daily by stomach tube) was -4%. For the same compound, the “Total cholesterol HDL, % change compared to control” value (shortened to “Total cholesterol HDL, % change”) (serum lipoproteins; 30 mg/kg daily by stomach tube) was “+13%”, the “Total cholesterol LDL, % change compared to control” value (“Total cholesterol LDL, % change” for short) (serum lipoproteins; 30 mg/kg daily by stomach tube) was -26% and the “Total cholesterol VLDL, % change compared to control” value (“Total cholesterol VLDL, % change” below) (serum lipoproteins; 30 mg/kg daily by stomach tube) was “+12%”. For the same compound, the “Cholesterol HDL/LDL” value (serum lipoproteins; 30 mg/kg daily) was 1.27, the “Body weight, % changes in the mean value relative to starting” value (serum lipoproteins; [2]) was “+5%” and the “Food consumption, % changes in the mean value relative to control” value (serum lipoproteins; [2]) was -1%. The “Glycerol VLDL, % change” value (serum lipoproteins; [2]) was -8%, the “Liver weight, % changes in the mean value relative to control” value (serum lipoproteins; [2]) was “+1%” and the “Protein LDL, % change” value (serum lipoproteins; [2]) was “+3%”. For the same compound, the “Protein VLDL, % change” value (serum lipoproteins; [2]) was -2%, the “Total cholesterol HDL, % change” value (serum lipoproteins; [2]) was -3% and the “Total cholesterol LDL, % change” value (serum lipoproteins; [2]) was -16%. The “Total cholesterol VLDL, % change” value (serum lipoproteins; [2]) was “+13%”, the “Cholesterol HDL/LDL” value (serum lipoproteins; 100 mg/kg daily) was 1.15 and the “Inhibition at 10^-5 mol/l” value [1] was 98%. It also gave an IC50 [1] of 2700 nM, an IC50 (HMG-CoA reductase) of 3 nM and an IC50 (HEP G2 cells) of 1700 nM. For the same compound, the “Relative potency in %” value (HEP G2 cells) was 3%.
In the case of CC(C)c1cc(SC(C)(C)Sc2cc(-c3ccc(F)cc3)c(OC[C@@H](O)C[C@@H](O)CC(=O)O)c(C(C)C)c2)cc(-c2ccc(F)cc2)c1OC[C@@H](O)C[C@@H](O)CC(=O)O [Example 7, 4,4-(Isopropylidenedithio)-bis-<{1-[(2S,4R)-dihydroxy-5-sodiocarboxy]pentoxy-2-isopropyl-6-p-fluorophenyl}benzene>], the “Body weight, % changes in the mean value relative to starting” value (serum lipoproteins; [2]) is reported as “+5%”, the “Glycerol VLDL, % change” value (serum lipoproteins; [2]) is reported as -3% and the “Liver weight, % changes in the mean value relative to control” value (serum lipoproteins; [2]) is reported as -1%. For the same compound, the “Protein LDL, % change” value (serum lipoproteins; [2]) was -8%, the “Protein VLDL, % change” value (serum lipoproteins; [2]) was -15% and the “Total cholesterol HDL, % change” value (serum lipoproteins; [2]) was “+9%”. For the same compound, the “Total cholesterol LDL, % change” value (serum lipoproteins; [2]) was -52%, the “Total cholesterol VLDL, % change” value (serum lipoproteins; [2]) was -23% and the “Cholesterol HDL/LDL” value (serum lipoproteins; 100 mg/kg daily) was 2.25. The “Inhibition at 10^-5 mol/l” value [1] was under 10%, the IC50 (HMG-CoA reductase) was 1 nM and the IC50 (HEP G2 cells) was 920 nM. The “Relative potency in %” value (HEP G2 cells) was 5%.
With CC(C)c1c(O)c(C(C)C)c(C(C)C)c(O)c1-c1ccc(F)cc1 [Process Example 22, 2-(p-Fluorophenyl)-3,5,6-triisopropyl-1,4-hydroquinone] the “Inhibition at 10^-5 mol/l” value [1] was 99% and the IC50 [1] was 1600 nM.
For CC(=O)Oc1c(-c2ccc(F)cc2)c(C(C)C)c(O)c(C(C)C)c1C(C)C [Process Example 23, 2,5,6-Triisopropyl-3-(p-fluorophenyl)-4-acetoxyphenol], the “Inhibition at 10^-5 mol/l” value [1] was 98% and the IC50 [1] was 2800 nM.
